Data from US9113629B2, “4-amino-6-(4-substituted-phenyl)-picolinates and 6-amino-2-(4-substituted-phenyl)-pyrimidine-4-carboxylates and their use as herbicides” (DOW AGROSCIENCES LLC, priority 2013, dated 2015).

Tested on: Key Broadleaf Weed and Crop Species
Assay: Post-emergent Test II herbicidal activity (Table 5)
Format: in vivo
Conditions: post-emergence, 336 h; ABUTH: velvetleaf (Abutilon theophrasti); application rate 70 g ai/ha; 14 days after application; read-out: Visual Growth Reduction (%) 14 Days After Application, ABUTH
Procedure, shortened: (§1)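 Foliar application at 187 L/ha to greenhouse-grown seedlings (first or second true leaf); subirrigation thereafter. Visual 0–100% injury at 14 d relative to untreated plants.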

Compound | pest or weed control at 70 g/ha [%]
Nc1c(F)c(-c2ccc(Br)cc2F)nc(C(=O)O)c1Cl [Compound 163] | 85 to 94

Same assay, conditions: post-emergence, 336 h; ABUTH: velvetleaf (Abutilon theophrasti); application rate 140 g ai/ha; 14 days after application; read-out: Visual Growth Reduction (%) 14 Days After Application, ABUTH

Compound | pest or weed control at 140 g/ha [%]
Nc1c(F)c(-c2ccc(Br)cc2F)nc(C(=O)O)c1Cl [Compound 163] | 85 to 94

Same assay, conditions: post-emergence, 336 h; AMARE: redroot pigweed (Amaranthus retroflexus); application rate 70 g ai/ha; 14 days after application; read-out: Visual Growth Reduction (%) 14 Days After Application, AMARE

Compound | pest or weed control at 70 g/ha [%]
Nc1c(F)c(-c2ccc(Br)cc2F)nc(C(=O)O)c1Cl [Compound 163] | 95 to 100

Same assay, conditions: post-emergence, 336 h; AMARE: redroot pigweed (Amaranthus retroflexus); application rate 140 g ai/ha; 14 days after application; read-out: Visual Growth Reduction (%) 14 Days After Application, AMARE

Compound | pest or weed control at 140 g/ha [%]
Nc1c(F)c(-c2ccc(Br)cc2F)nc(C(=O)O)c1Cl [Compound 163] | 95 to 100

Same assay, conditions: post-emergence, 336 h; BRSNN: oilseed-rape, canola (Brassica napus); application rate 70 g ai/ha; 14 days after application; read-out: Visual Growth Reduction (%) 14 Days After Application, BRSNN

Compound | pest or weed control at 70 g/ha [%]
Nc1c(F)c(-c2ccc(Br)cc2F)nc(C(=O)O)c1Cl [Compound 163] | 95 to 100

Same assay, conditions: post-emergence, 336 h; BRSNN: oilseed-rape, canola (Brassica napus); application rate 140 g ai/ha; 14 days after application; read-out: Visual Growth Reduction (%) 14 Days After Application, BRSNN

Compound | pest or weed control at 140 g/ha [%]
Nc1c(F)c(-c2ccc(Br)cc2F)nc(C(=O)O)c1Cl [Compound 163] | 95 to 100

Same assay, conditions: post-emergence, 336 h; CHEAL: lambsquarters (Chenopodium album); application rate 70 g ai/ha; 14 days after application; read-out: Visual Growth Reduction (%) 14 Days After Application, CHEAL

Compound | pest or weed control at 70 g/ha [%]
Nc1c(F)c(-c2ccc(Br)cc2F)nc(C(=O)O)c1Cl [Compound 163] | 95 to 100

Same assay, conditions: post-emergence, 336 h; CHEAL: lambsquarters (Chenopodium album); application rate 140 g ai/ha; 14 days after application; read-out: Visual Growth Reduction (%) 14 Days After Application, CHEAL

Compound | pest or weed control at 140 g/ha [%]
Nc1c(F)c(-c2ccc(Br)cc2F)nc(C(=O)O)c1Cl [Compound 163] | 95 to 100

Same assay, conditions: post-emergence, 336 h; EPHHL: wild poinsettia (Euphorbia heterophylla); application rate 70 g ai/ha; 14 days after application; read-out: Visual Growth Reduction (%) 14 Days After Application, EPHHL

Compound | pest or weed control at 70 g/ha [%]
Nc1c(F)c(-c2ccc(Br)cc2F)nc(C(=O)O)c1Cl [Compound 163] | 95 to 100

Same assay, conditions: post-emergence, 336 h; EPHHL: wild poinsettia (Euphorbia heterophylla); application rate 140 g ai/ha; 14 days after application; read-out: Visual Growth Reduction (%) 14 Days After Application, EPHHL

Compound | pest or weed control at 140 g/ha [%]
Nc1c(F)c(-c2ccc(Br)cc2F)nc(C(=O)O)c1Cl [Compound 163] | 95 to 100

Same assay, conditions: post-emergence, 336 h; HELAN: sunflower (Helianthus annuus); application rate 70 g ai/ha; 14 days after application; read-out: Visual Growth Reduction (%) 14 Days After Application, HELAN

Compound | pest or weed control at 70 g/ha [%]
Nc1c(F)c(-c2ccc(Br)cc2F)nc(C(=O)O)c1Cl [Compound 163] | 95 to 100

Same assay, conditions: post-emergence, 336 h; HELAN: sunflower (Helianthus annuus); application rate 140 g ai/ha; 14 days after application; read-out: Visual Growth Reduction (%) 14 Days After Application, HELAN

Compound | pest or weed control at 140 g/ha [%]
Nc1c(F)c(-c2ccc(Br)cc2F)nc(C(=O)O)c1Cl [Compound 163] | 95 to 100

Same assay, conditions: post-emergence, 336 h; VIOTR: wild pansy (Viola tricolor); application rate 70 g ai/ha; 14 days after application; read-out: Visual Growth Reduction (%) 14 Days After Application, VIOTR

Compound | pest or weed control at 70 g/ha [%]
Nc1c(F)c(-c2ccc(Br)cc2F)nc(C(=O)O)c1Cl [Compound 163] | 95 to 100

Same assay, conditions: post-emergence, 336 h; VIOTR: wild pansy (Viola tricolor); application rate 140 g ai/ha; 14 days after application; read-out: Visual Growth Reduction (%) 14 Days After Application, VIOTR

Compound | pest or weed control at 140 g/ha [%]
Nc1c(F)c(-c2ccc(Br)cc2F)nc(C(=O)O)c1Cl [Compound 163] | 95 to 100

Tested on: Key Grass and Sedge Weeds as well as Grass Crops
Assay: Post-emergent Test II herbicidal activity (Table 6)
Format: in vivo
Conditions: post-emergence, 336 h, CYPES: yellow nutsedge (Cyperus esculentus), 70 g ai/ha, read-out: Visual Growth Reduction (%) 14 Days After Application, CYPES
Procedure, shortened: as §1

Compound | pest or weed control at 70 g/ha [%]
Nc1c(F)c(-c2ccc(Br)cc2F)nc(C(=O)O)c1Cl [Compound 163] | 95 to 100

Same assay, conditions: post-emergence, 336 h, CYPES: yellow nutsedge (Cyperus esculentus), 140 g ai/ha, read-out: Visual Growth Reduction (%) 14 Days After Application, CYPES

Compound | pest or weed control at 140 g/ha [%]
Nc1c(F)c(-c2ccc(Br)cc2F)nc(C(=O)O)c1Cl [Compound 163] | 95 to 100

Same assay, conditions: post-emergence, 336 h, DIGSA: crabgrass (Digitaria sanguinalis), 70 g ai/ha, read-out: Visual Growth Reduction (%) 14 Days After Application, DIGSA

Compound | pest or weed control at 70 g/ha [%]
Nc1c(F)c(-c2ccc(Br)cc2F)nc(C(=O)O)c1Cl [Compound 163] | 75 to 84

Same assay, conditions: post-emergence, 336 h, DIGSA: crabgrass (Digitaria sanguinalis), 140 g ai/ha, read-out: Visual Growth Reduction (%) 14 Days After Application, DIGSA

Compound | pest or weed control at 140 g/ha [%]
Nc1c(F)c(-c2ccc(Br)cc2F)nc(C(=O)O)c1Cl [Compound 163] | 85 to 94

Same assay, conditions: post-emergence, 336 h, ECHCG: barnyardgrass (Echinochloa crus-galli), 70 g ai/ha, read-out: Visual Growth Reduction (%) 14 Days After Application, ECHCG

Compound | pest or weed control at 70 g/ha [%]
Nc1c(F)c(-c2ccc(Br)cc2F)nc(C(=O)O)c1Cl [Compound 163] | 85 to 94

Same assay, conditions: post-emergence, 336 h, ECHCG: barnyardgrass (Echinochloa crus-galli), 140 g ai/ha, read-out: Visual Growth Reduction (%) 14 Days After Application, ECHCG

Compound | pest or weed control at 140 g/ha [%]
Nc1c(F)c(-c2ccc(Br)cc2F)nc(C(=O)O)c1Cl [Compound 163] | 85 to 94

Same assay, conditions: post-emergence, 336 h, ORYSA: rice (Oryza sativa), crop, 70 g ai/ha, read-out: Visual Growth Reduction (%) 14 Days After Application, ORYSA

Compound | pest or weed control at 70 g/ha [%]
Nc1c(F)c(-c2ccc(Br)cc2F)nc(C(=O)O)c1Cl [Compound 163] | 0 to 29

Same assay, conditions: post-emergence, 336 h, ORYSA: rice (Oryza sativa), crop, 140 g ai/ha, read-out: Visual Growth Reduction (%) 14 Days After Application, ORYSA

Compound | pest or weed control at 140 g/ha [%]
Nc1c(F)c(-c2ccc(Br)cc2F)nc(C(=O)O)c1Cl [Compound 163] | 0 to 29

Same assay, conditions: post-emergence, 336 h, SETFA: giant foxtail (Setaria faberi), 70 g ai/ha, read-out: Visual Growth Reduction (%) 14 Days After Application, SETFA

Compound | pest or weed control at 70 g/ha [%]
Nc1c(F)c(-c2ccc(Br)cc2F)nc(C(=O)O)c1Cl [Compound 163] | 85 to 94

Same assay, conditions: post-emergence, 336 h, SETFA: giant foxtail (Setaria faberi), 140 g ai/ha, read-out: Visual Growth Reduction (%) 14 Days After Application, SETFA

Compound | pest or weed control at 140 g/ha [%]
Nc1c(F)c(-c2ccc(Br)cc2F)nc(C(=O)O)c1Cl [Compound 163] | 95 to 100

Same assay, conditions: post-emergence, 336 h, SORVU: grain sorghum (Sorghum vulgare), 70 g ai/ha, read-out: Visual Growth Reduction (%) 14 Days After Application, SORVU

Compound | pest or weed control at 70 g/ha [%]
Nc1c(F)c(-c2ccc(Br)cc2F)nc(C(=O)O)c1Cl [Compound 163] | 85 to 94

Same assay, conditions: post-emergence, 336 h, SORVU: grain sorghum (Sorghum vulgare), 140 g ai/ha, read-out: Visual Growth Reduction (%) 14 Days After Application, SORVU

Compound | pest or weed control at 140 g/ha [%]
Nc1c(F)c(-c2ccc(Br)cc2F)nc(C(=O)O)c1Cl [Compound 163] | 85 to 94

Same assay, conditions: post-emergence, 336 h, TRZSS (wheat, Triticum aestivum), crop, 70 g ai/ha, read-out: Visual Growth Reduction (%) 14 Days After Application, TRZSS

Compound | pest or weed control at 70 g/ha [%]
Nc1c(F)c(-c2ccc(Br)cc2F)nc(C(=O)O)c1Cl [Compound 163] | 60 to 74

Same assay, conditions: post-emergence, 336 h, TRZSS (wheat, Triticum aestivum), crop, 140 g ai/ha, read-out: Visual Growth Reduction (%) 14 Days After Application, TRZSS

Compound | pest or weed control at 140 g/ha [%]
Nc1c(F)c(-c2ccc(Br)cc2F)nc(C(=O)O)c1Cl [Compound 163] | 60 to 74

Same assay, conditions: post-emergence, 336 h, ZEAMX: maize, corn (Zea mays), crop, 70 g ai/ha, read-out: Visual Growth Reduction (%) 14 Days After Application, ZEAMX

Compound | pest or weed control at 70 g/ha [%]
Nc1c(F)c(-c2ccc(Br)cc2F)nc(C(=O)O)c1Cl [Compound 163] | 45 to 59

Same assay, conditions: post-emergence, 336 h, ZEAMX: maize, corn (Zea mays), crop, 140 g ai/ha, read-out: Visual Growth Reduction (%) 14 Days After Application, ZEAMX

Compound | pest or weed control at 140 g/ha [%]
Nc1c(F)c(-c2ccc(Br)cc2F)nc(C(=O)O)c1Cl [Compound 163] | 60 to 74

Tested on: not given
Assay: not given
Conditions: not given

melting point [°C] | Compound
162 to 164 | Nc1c(F)c(-c2ccc(Br)cc2F)nc(C(=O)O)c1Cl [Compound 163]
